Experimental data reported in US11142539B2, “Phosphinogold(I) complexes and methods of treating cancer” (King Fahd University of Petroleum and Minerals, priority 2020, dated 2021).
“Also recorded” adds a separate entry of the source.

Columns and labels:
[1] = tested on: HepG2 (human liver cancer) cell line; test: Cell Titer-Glo luminescence-based cell growth inhibition assay, HepG2; conditions: HepG2 cells, 72 hours incubation, spread in brackets
Procedure: (§1) The cell growth inhibition effects of gold(I) complexes 1-4 and cisplatin were measured by the Cell Titer-Glo® luminescence-based assay against the A549 (human lung carcinoma), HeLa (human cervical cancer), and HepG2 (human liver cancer) cell lines according to manufacturer's protocol. Briefly, the cell suspensions were added to each well of 384-w plate at a suitable density (total volume of 40 μL). The margin wells of plate were filled with PBS buffer. The gold(I) complexes were added at various concentrations in triplicate (10 μL solutions of the complex added to the plate), then the plate was incubated for 72 hours in 5% CO2 incubator at 37° C. After that the Cell Titer reagent was added to each tested well and stirred for 2 minutes on an orbital shaker. […] Luminescence signals were measured on PHERAstar Plus. […] The potential effect of the testing complexes on cell growth inhibition expressed as IC50 values was calculated by the formula below: Cell growth Inhibition %=100-100*(Luminescencecomplex)/(LuminescenceDMSO) Cell viability %=100*(Luminescencecomplex)/(LuminescenceDMSO)
(§2) The gold(I) complexes 1-4 and cisplatin were examined for their cell growth inhibition effects against A549, HeLa, and HepG2 human cancer cell lines using Cell Titer-Glo® luminescence-based assay. […]

[2] = tested on: HeLa (human cervical cancer) cell line; test: Cell Titer-Glo luminescence-based cell growth inhibition assay, HeLa; conditions: HeLa cells, 72 hours incubation, spread in brackets
Procedure: as §1, §2

[3] = tested on: A549, HeLa, and HepG2 human cancer cell lines; test: Cell Titer-Glo cell growth inhibition, summary statements over all three cell lines; format: cell-based; conditions: with respect to cisplatin
Procedure: as §1, §2

Structure (SMILES) | IC50 [1] [µM] | IC50 [2] [µM] | inhibition of cell proliferation (in words) [3]
N.N.[Cl][Pt][Cl] [Cisplatin, cisplatin] | 9.6 | 21.4 | 
N[C@@H]1CCCC[C@H]1[PH]([Au][Cl])(c1ccccc1)c1ccccc1 [gold(I) complex 1, [Au(ACP)Cl]] |  |  | excellent inhibition of cell proliferation
CN(C)C(=S)[S][Au][PH](c1ccccc1)(c1ccccc1)[C@@H]1CCCC[C@H]1N [gold(I) complex 2] |  |  | excellent inhibition of cell proliferation; also recorded: best inhibition among the three
